Measured values from patent publication US9394544B2, “Ameliorating oxidative stress in neurodegenerative disease via Nox1 targeting” (University of Central Florida Research Foundation, Inc., priority 2013, dated 2016).
Where two headings read alike, the source gives them in different places.

Tests used:
N27 cells = test: NBT assay of 6-OHDA-mediated ROS generation in N27 dopaminergic cells; format: cell-based, rat; details: 6 h; for 6-OHDA-mediated ROS generation (NBT assay): inhibitor pre-treatment 30 min (DPI 0.1, 0.5, 1.0 μM; apocynin 0.1, 1.0, 10, 100 μM), then 6-OHDA 100 μM
Method: N27 cells were pre-treated with various concentrations of DPI (0.1, 0.5, and 1.0 μM) for 30 min and then 6-OHDA (100 μM) was added. Superoxide was measured using the nitroblue tetrazolium (NBT) assay at 6 h post 6-OHDA.
Cells were grown in RPMI 1640 containing 10% FBS, 100 IU/1 penicillin, and 10 g/ml streptomycin at 37° C. with 5% CO2 supply in humidified atmosphere. For experiments, the cells were plated on polystyrene tissue culture dishes at a density of 2×10^4 cells/well in 96-well culture plates, 1×10^6 cells/well in 24-well culture plates, 1×10^6 cells/well in 6-well culture plates, or 2×10^6 cells/100 mm plate. After 24 h, the cells were fed with fresh medium and treated with 6-OHDA and/or other drugs.
6-OHDA treated cells were incubated for 1 h at 37° C. with a filtered solution of 0.3 mg/ml of NBT in complete medium. The cells were washed once with PBS and fixed with 0.4% paraformaldehyde for light microscopy. To quantify NBT precipitation, cells were washed twice with 70% methanol and fixed for 5 min in 100% methanol. After the wells were allowed to dry in the air, the formazan is solubilized with 120 μl 2M K OH and 140 μl DMSO. The OD was read in an ELISA plate reader at 590 nm.

Nox1 [1] = test: Nox1 expression (RT-PCR, immunoblot) in N27 cells exposed to toxins; format: cell-based, rat
Excerpt: The NADPH oxidase is a multi-subunit enzyme that consists of the catalytic subunits (Nox isoforms) together with the regulatory subunits including p22phox, p47phox, p40phox, p67phox, Nox organizer 1 (Noxo1), Nox activator 1 (Noxa1), and small GTPase Rac1. In order to test whether dopaminergic (DA) cells are equipped with the NOX components, N27, a well-established rat DA cell line was examined (Prasad et al. 1994). The mRNAs encoding each Nox isoform and regulatory subunits were detected using RT-PCR. Since transcriptional induction of Nox1 and Nox4 has already been reported in several tissues under a variety of stimuli, transcripts were determined in both nontreated and 6-hydroxydopamine (6-OHDA), a DA neurodegenerative compound, treated DA cells. ROS generation as induced by 6-OHDA (100 μM) and subsequent cell death was observed. All Nox isoforms (Nox1, Nox2, Nox4, Duox1 and Duox2) except Nox3 and Nox5 were detected (FIG. 1A). […] Mitochondria, which have long been considered as a major source of ROS, play a key role in Nox1-mediated superoxide generation (Desouki et al. 2005). […] Cytoplasmic regulatory subunits including p47phox, Noxa1, and Noxo1 were constitutively expressed in DA cells as well (FIG. 1A). Noxa1 and Noxo1 are homologues of p67phox and p47phox, respectively. They are involved in Nox1-mediated superoxide generation (Banfi et al. 2003, Geiszt et al. 2003). […] The activation of a small GTPase Rac1 is indispensable for Nox1 and Nox2 activation (Bokoch 2002). GTP-bound active Rac1 was measured in DA cells treated with 6-OHDA for various duration from 1 h to 6 h.
Total RNA was extracted from N27 cells using Trizol reagent (Invitrogen, Carlsbad, Calif.). Reverse transcription was performed for 1 h at 42° C. with 1 μg of total RNA using 20 unit/μl of AMV reverse transcriptase (Roche Applied Science, Indianapolis, Ind.), and oligo-p(dT)15 as a primer. The samples were then heated at 99° C. for 5 min to terminate the reaction. The cDNA obtained from 1 μg total RNA was used as a template for PCR amplification. Oligonucleotide primers were designed based on Genebank entries for rat NOX1 (sense, 5′-[…]-3′ SEQ ID NO. 1; antisense, 5′-[…]-3′ SEQ ID NO. 2), rat NOX2 (sense, 5′-[…]-3′ SEQ ID NO. 3; antisense, 5′-[…]-3′ SEQ ID NO. 4), rat NOX4 (sense, 5′-[…]-3′ SEQ ID NO. 5; antisense, 5′-[…]-3′ SEQ ID NO. 6), rat NOXA1 (sense, 5′-[…]-3′ SEQ ID NO. 7; antisense, 5′-[…]-3′ SEQ ID NO. 8), rat NOXO1 (sense, 5′-[…]-3′ SEQ ID NO. 9; antisense, 5′-[…]-3′ SEQ ID NO. 10), rat p47 (sense, 5′-[…]-3′ SEQ ID NO 11; antisense, 5′-[…]-3′ SEQ ID NO. 12), rat Duox1 (sense, 5′-[…]-3′ SEQ ID NO. 13; antisense, 5′-[…]-3′SEQ ID NO. 14), rat Duox2 (sense, 5′-[…]-3′ SEQ ID NO. 15; antisense, 5′-[…]-3′ SEQ ID NO. 16) and rat GAPDH (sense, 5′-[…]-3′ SEQ ID NO. 17; antisense, 5′-[…]-3′ SEQ ID NO. 18). PCR mixes contained 10 μl of 2×PCR buffer, 1.25 mM of each dNTP, 10 pmol of each forward and reverse primer, and 2.5 units of Taq polymerase in the final volume of 20 μl. Amplification was performed in 35 cycles at 60° C., 30 sec; 72° C., 1 min; 94° C., 30 sec. After the last cycle, all samples were incubated for an additional 10 min at 72° C. for final extension step. PCR fragments were analyzed on 1.2% agarose gel in 0.5×TAE containing ethidium bromide. Amplification of GAPDH, a relatively invariant internal reference RNA, was performed in parallel, and cDNA amounts were normalized against GAPDH mRNA levels. The primer set specifically recognized only the gene of interest as indicated by amplification of a single band of expected size. […]

Nox1 [2] = test: Nox1 expression in SNDA neurons of MPTP-treated mice; format: in vivo
Nox1 [3] = test: Nuclear localization of Nox1-EGFP in N27 cells (confocal microscopy); format: cell-based, rat; details: N27 cells expressing Nox1-EGFP; 6-OHDA 50 μM 6 h, rotenone 5 μM 18 h
Excerpt: The observation that Nox1 was induced by a variety of oxidative stimuli in vitro led one to test Nox1 expression in the rat substantia nigra DA (SNDA) neurons administered with 6-OHDA. […] Neither astrocytes nor microglia expressed Nox1, as verified by co-immunostaining of Nox1 with GFAP (astrocytes) or CD11b (microglia) (FIG. 3B). Increased Nox1 transcript was found in the SN as shown by in situ hybridization (FIG. 3C). […] As early as 3 days post 6-OHDA injection, Nox1 expression was increased in the nucleus and in the cytoplasm of DA neurons (FIG. 4A). […] Nuclear expression of the Nox1/Rac1 complex was further analyzed in N27 cells after treatment with 6-OHDA. First, activated Rac1 was detected by immunoprecipitation of nuclear extracts of N27 cells after a 24 h treatment with 6-OHDA. […] Next, it was established that N27 cells stably expressing Nox1 tagged with EGFP at the C-terminus. […] To examine whether nuclear translocation of Nox1 in dopaminergic cells is observed under different conditions that cause dopaminergic neuronal death, mitochondrial respiratory complex inhibitor, rotenone, was tested.

Molecule: c1ccc2c(c1)[I+]c1ccccc1-2 [DPI, diphenyleneiodonium]
- lowest concentration significantly reducing 6-OHDA-mediated ROS generation (N27 cells; 30 min pre-treatment, 6-OHDA 100 μM): 0.1 µM
- 6-OHDA-mediated ROS generation (NBT assay) (N27 cells): significantly reduced

Molecule: N#CC(C#N)=NNc1ccc(OC(F)(F)F)cc1 [FCCP]
- mRNA and protein levels of Nox1 (Nox1 [1]): elevated

Molecule: OO [H2O2]
- mRNA and protein levels of Nox1 (Nox1 [1]; N27 cells): increase

Molecule: CN1CC=C(c2ccccc2)CC1 [MPTP, 1-methyl-4-phenyl-1,2,3,6-tetrahydropyridine]
- Nox1 expression in the SNDA neurons (Nox1 [2]): Increased Nox1 expression

Molecule: COc1cc(C(C)=O)ccc1O [apocynin]
- 6-OHDA-mediated ROS generation (NBT assay) (N27 cells): significantly diminished

Molecule: CC(C)(C)c1ccc(CSc2cnn(C(C)(C)C)c(=O)c2Cl)cc1 [pyridaben]
- mRNA and protein levels of Nox1 (Nox1 [1]; N27 cells): elevated

Molecule: C=C(C)[C@H]1Cc2c(ccc3c2O[C@@H]2COc4cc(OC)c(OC)cc4[C@@H]2C3=O)O1 [rotenone]
- nuclear localization of Nox1 (Nox1 [3]): led to nuclear localization of Nox1
- mRNA and protein levels of Nox1 (Nox1 [1]; N27 cells): elevated

Molecule: antimycin A
- mRNA and protein levels of Nox1 (Nox1 [1]; N27 cells): elevated
